Laboratory results: ChEMBL document CHEMBL1201862, “PubChem BioAssay data set” (2004)
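All cell lines were grown in 96-well plates and treated with compound for 48 hours. Abbreviation: GI50, concentration required for 50% inhibition of growth.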 Activity calls are given as the source filed them. No stated cut-off is given here; in the data, active = GI50 up to about 1.1 µM and inactive = higher.

Tests used:
Experiment in all cases: growth of human tumour cells (NCI), 48 h
[1] = system: NCI-H522
[2] = system: COLO 205
[3] = system: M14
[4] = system: DLD-1
[5] = system: IGROV-1
[6] = system: Malme-3M
[7] = system: LXFL 529
[8] = system: ACHN
[9] = system: LOX IMVI
[10] = system: DMS-273
[11] = system: SF-268
[12] = system: SK-MEL-2
[13] = system: UACC-62
[14] = system: RPMI-8226
[15] = system: HOP-62

Measured: GI50

C[Si](C)(C)/C=C/CN1C(=O)CCC1=O
inactive: [1] > 100 µM | [2] > 100 µM | [3] > 100 µM | [4] > 100 µM | [5] > 100 µM | [6] > 100 µM | [7] > 100 µM | [8] > 100 µM | [9] > 100 µM | [10] > 100 µM | [11] > 100 µM | [12] > 100 µM | [13] > 100 µM | [14] > 100 µM

COc1ccc2nc3cc(Cl)ccc3c(Sc3ccc(N)cc3)c2c1
inactive: [1] 4.83 µM | [2] 11.2 µM | [3] 9.06 µM | [4] 4.47 µM | [5] 16.1 µM | [6] 15 µM | [7] 4.32 µM | [8] 10.1 µM | [9] 7.6 µM | [10] 10.6 µM | [11] 11.6 µM | [15] 24.2 µM | [12] 13.8 µM | [13] 5.04 µM

O=c1[nH]c(=O)n(C2CC(O)C(CO)O2)cc1C(OCC(F)(F)F)OCC(F)(F)F (stereo not given)
inactive: [1] > 100 µM | [2] > 100 µM | [3] > 100 µM | [4] > 100 µM | [5] > 100 µM | [6] > 100 µM | [7] > 100 µM | [8] > 100 µM | [9] > 100 µM | [10] > 100 µM | [11] > 100 µM | [15] > 100 µM | [12] > 100 µM | [13] > 100 µM | [14] > 100 µM

CN(C)C(=S)/N=c1\ssc(=S)n1C
inactive: [1] > 100 µM | [3] > 100 µM | [4] > 100 µM | [5] > 100 µM | [6] > 100 µM | [7] > 100 µM | [8] > 100 µM | [10] > 100 µM | [11] > 100 µM | [15] > 100 µM | [12] > 100 µM | [13] > 100 µM | [14] > 100 µM

CC1(C)OP23(NC(=O)OC2(C(F)(F)F)c2ccccc2O3)OC1(C)C (stereo not given)
inactive: [1] > 100 µM | [3] > 100 µM | [4] > 100 µM | [6] > 100 µM | [7] > 100 µM | [8] > 100 µM | [9] > 100 µM | [10] > 100 µM | [11] > 100 µM | [12] > 100 µM | [13] > 100 µM

O=C(O)C12CCCCC1CCCC2 (stereo not given)
inactive: [1] > 100 µM | [2] > 100 µM | [3] > 100 µM | [4] > 100 µM | [5] > 100 µM | [7] > 100 µM | [8] > 100 µM | [9] > 100 µM | [10] > 100 µM | [11] > 100 µM | [15] > 100 µM | [13] > 100 µM | [14] > 100 µM
